Assay results from patent US20230203043A1, “NOVEL IMIDAZOPYRAZINE DERIVATIVES” (Hoffmann-La Roche Inc., priority 2020, published 2023).
Structures can show the parent of a compound that is named as a salt.

These compounds were tested on Acinetobacter baumannii ATCC17961 (assay: Antimicrobial susceptibility testing: 90% growth inhibitory concentration (IC90) determination in Iso-Sensitest broth, OD600 growth). Conditions: Acinetobacter baumannii, ATCC17961, 16 h, read-out: A. baumannii ATCC 17961 IC90 (uM), strain ATCC 17961, OD600 growth over 16 h.
Assay type: cell-based
Procedure, shortened: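 Growth inhibition is calculated during the logarithmic phase from OD600 readings taken every 20 minutes across 16 h at 35±2° C. Bacteria at ~5×10^(5) CFU/ml face twofold dilution series (e.g. 50 to 0.097 μM final).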

SMILES | IC90
Cc1cc(Cn2cc(-c3cnc4c(Nc5ccc(C(=O)N6CCNCC6)c(Cl)c5)nccn34)c(C(F)(F)F)n2)n[nH]1 [Example 118, [2-chloro-4-[[3-[1-[(5-methyl-1H-pyrazol-3-yl)methyl]-3-(trifluoromethyl)pyrazol-4-yl]imidazo[1,2-a]pyrazin-8-yl]amino]phenyl]-piperazin-1-ylmethanone formate] | 0.343 µM
NC1CC(C(=O)N2CCN(C(=O)c3ccc(Nc4nccn5c(-c6c[nH]nc6C(F)(F)F)cnc45)cc3Cl)CC2)C1 (centres unmarked) [Example 327, [4-(3-aminocyclobutanecarbonyl)piperazin-1-yl]-[2-chloro-4-[[3-[3-(trifluoromethyl)-1H-pyrazol-4-yl]imidazo[1,2-a]pyrazin-8-yl]amino]phenyl]methanone formate] | 0.146 µM
N[C@@H]1CN[C@H](C(=O)N2CCN(C(=O)c3ccc(Nc4nccn5c(-c6c[nH]nc6C(F)(F)F)cnc45)cc3Cl)CC2)C1 [Example 295, [4-[(2S,4S)-4-aminopyrrolidine-2-carbonyl]piperazin-1-yl]-[2-chloro-4-[[3-[3-(trifluoromethyl)-1H-pyrazol-4-yl]imidazo[1,2-a]pyrazin-8-yl]amino]phenyl] methanone formate] | 0.473 µM
CCc1cc(Nc2nccn3c(-c4cn(CC#N)nc4C(F)(F)F)cnc23)ccc1C(=O)NCC(=O)N1CCCC(N)C1 (centres unmarked) [Example 506, N-[2-(3-amino-1-piperidyl)-2-oxo-ethyl]-4-[[3-[1-(cyanomethyl)-3-(trifluoromethyl)pyrazol-4-yl]imidazo[1,2-a]pyrazin-8-yl]amino]-2-ethyl-benzamide formate] | 0.191 µM
CCc1cc(Nc2nccn3c(-c4cn(CCF)nc4C(F)(F)F)cnc23)ccc1C(=O)NCCOCCN [Example 301, N-[2-(2-aminoethoxy)ethyl]-2-ethyl-4-[[3-[1-(2-fluoroethyl)-3-(trifluoromethyl)pyrazol-4-yl]imidazo[1,2-a]pyrazin-8-yl]amino]benzamide formate] | 0.164 µM
N[C@H]1CN[C@H](C(=O)N2CCN(C(=O)c3ccc(Nc4nccn5c(-c6c[nH]nc6C(F)(F)F)cnc45)cc3Cl)CC2)C1 [Example 200, [4-[(2S,4R)-4-aminopyrrolidine-2-carbonyl]piperazin-1-yl]-[2-chloro-4-[[3-[3-(trifluoromethyl)-1H-pyrazol-4-yl]imidazo[1,2-a]pyrazin-8-yl]amino]phenyl] methanone formate] | 0.372 µM

Same assay, conditions: Acinetobacter baumannii, ATCC17961, 16 h, strain ATCC 17961, OD600 growth over 16 h, read-out: A. baumannii ATCC 17961 IC90

SMILES | IC90
NC(=O)c1ccc(Nc2nccn3c(-c4c[nH]nc4C(F)(F)F)cnc23)cc1Cl [Example 404, 2-chloro-4-[[3-[3-(trifluoromethyl)-1H-pyrazol-4-yl]imidazo[1,2-a]pyrazin-8-yl]amino]benzamide] | 1.23 µM
CCc1cc(Nc2nccn3c(-c4c[nH]nc4C(F)(F)F)cnc23)ccc1C(=O)NCCCNC(=O)[C@@H](N)CNC(=N)N [Example 13, N-[3-[[(2S)-2-amino-3-carbamimidamidopropanoyl]amino]propyl]-2-ethyl-4-[[3-[3-(trifluoromethyl)-1H-pyrazol-4-yl]imidazo[1,2-a]pyrazin-8-yl]amino]benzamide formate] | 0.166 µM
Cc1cc(Nc2nccn3c(-c4cn(CC#N)nc4C(F)(F)F)cnc23)ccc1C(=O)NCCOCCN [Example 262, N-[2-(2-aminoethoxy)ethyl]-4-[[3-[1-(cyanomethyl)-3-(trifluoromethyl)pyrazol-4-yl]imidazo[1,2-a]pyrazin-8-yl]amino]-2-methylbenzamide] | 1.1 µM
O=C(N[C@@H]1CCN(C(=O)[C@@H]2C[C@@H](O)CN2)C1)c1ccc(Nc2nccn3c(-c4c[nH]nc4C(F)(F)F)cnc23)cc1Cl [Example 308, 2-chloro-N-[(3R)-1-[(2S,4R)-4-hydroxypyrrolidine-2-carbonyl]pyrrolidine-3-yl]-4-[[3-[3-(trifluoromethyl)-1H-pyrazol-4-yl]imidazo[1,2-a]pyrazin-8-yl]amino]benzamide] | 0.525 µM
CCc1cc(Nc2nccn3c(-c4cn(CC#N)nc4C(F)(F)F)cnc23)ccc1C(=O)NCCCCCN [Example 329, N-(5-aminopentyl)-4-[[3-[1-(cyanomethyl)-3-(trifluoromethyl)pyrazol-4-yl]imidazo[1,2-a]pyrazin-8-yl]amino]-2-ethylbenzamide] | 0.211 µM
C=CCn1cc(-c2cnc3c(Nc4ccc(C(=O)N[C@H](C)CN)c(CC)c4)nccn23)c(C(F)(F)F)n1 [Example 108, N-[(2R)-1-aminopropan-2-yl]-2-ethyl-4-[[3-[1-prop-2-enyl-3-(trifluoromethyl)pyrazol-4-yl]imidazo[1,2-a]pyrazin-8-yl]amino]benzamide] | 0.302 µM
CCc1cc(Nc2nccn3c(-c4cn(CC(F)F)nc4C(F)(F)F)cnc23)ccc1C(=O)NCCNC(=O)N1CC[C@H](N)C1 [Example 489, (S)-3-amino-N-(2-(4-((3-(1-(2,2-difluoroethyl)-3-(trifluoromethyl)-1H-pyrazol-4-yl)imidazo[1,2-a]pyrazin-8-yl)amino)-2-ethylbenzamido)ethyl)pyrrolidine-1-carboxamide formate] | 0.184 µM
CN(C)C(=O)c1ccc(Nc2nccn3c(-c4c[nH]nc4C(F)(F)F)cnc23)cc1Cl [Example 402, 2-chloro-N,N-dimethyl-4-[[3-[3-(trifluoromethyl)-1H-pyrazol-4-yl]imidazo[1,2-a]pyrazin-8-yl]amino]benzamide] | 0.384 µM
O=C(c1ccc(Nc2nccn3c(-c4cn(C(F)F)nc4C(F)(F)F)cnc23)cc1Cl)N1CC2(CNC2)C1 [Example 79, [2-chloro-4-[[3-[1-(difluoromethyl)-3-(trifluoromethyl)pyrazol-4-yl]imidazo[1,2-a]pyrazin-8-yl]amino]phenyl]-(2,6-diazaspiro[3.3]heptan-2-yl)methanone] | 0.222 µM
CCc1cc(Nc2nccn3c(-c4cn(CC#N)nc4C(F)(F)F)cnc23)ccc1C(=O)NCCOCC(C)(C)N [Example 60, N-[2-(2-amino-2-methylpropoxy)ethyl]-4-[[3-[1-(cyanomethyl)-3-(trifluoromethyl)pyrazol-4-yl]imidazo[1,2-a]pyrazin-8-yl]amino]-2-ethylbenzamide] | 0.23 µM
O=C(CNCCNC(=O)c1ccc(Nc2nccn3c(-c4cn(CC(F)F)nc4C(F)(F)F)cnc23)cc1Cl)N[C@H]1CCNC1 [Example 822, (S)-2-chloro-4-(3-(1-2,2-difluoroethyl)-3-(trifluoromethyl)-1H-pyrazol-4-yl)imidazo[1,2-a]pyrazin-8-yl)amino)-N-(2-((2-oxo-2-(pyrrolidin-3-ylamino)ethyl) amino)ethyl) benzamide formate] | 0.15 µM
Cc1cc(Nc2nccn3c(-c4c[nH]nc4C(F)(F)F)cnc23)cc(F)c1C(=O)N[C@H](C)CN [Example 83, N-[(2R)-1-aminopropan-2-yl]-2-fluoro-6-methyl-4-[[3-[3-(trifluoromethyl)-1H-pyrazol-4-yl]imidazo[1,2-a]pyrazin-8-yl]amino]benzamide] | 2.46 µM
CCc1cc(Nc2nccn3c(-c4cn(CCN)nc4C(F)(F)F)cnc23)ccc1C(=O)NC [Example 283, 4-[[3-[1-(2-aminoethyl)-3-(trifluoromethyl)pyrazol-4-yl]imidazo[1,2-a]pyrazin-8-yl]amino]-2-ethyl-N-methylbenzamide] | 1.56 µM
NCCC(=O)NCCCNC(=O)c1ccc(Nc2nccn3c(-c4c[nH]nc4C(F)(F)F)cnc23)cc1Cl [Example 338, N-[3-(3-aminopropanoylamino)propyl]-2-chloro-4-[[3-[3-(trifluoromethyl)-1H-pyrazol-4-yl]imidazo[1,2-a]pyrazin-8-yl]amino]benzamide hydrochloride] | 0.691 µM
N#CCn1cc(-c2cnc3c(Nc4ccc(C(=O)N5CCNCC5)c(Cl)c4)nccn23)c(C(F)(F)F)n1 [Example 226, 2-[4-[8-[3-chloro-4-(piperazine-1-carbonyl)anilino]imidazo[1,2-a]pyrazin-3-yl]-3-(trifluoromethyl)pyrazol-1-yl]acetonitrile] | 0.088 µM
NCCCCNC(=O)c1ccc(Nc2nccn3c(-c4c[nH]nc4C(F)(F)F)cnc23)cc1Cl [Example 362, N-(4-aminobutyl)-2-chloro-4-[[3-[3-(trifluoromethyl)-1H-pyrazol-4-yl]imidazo[1,2-a]pyrazin-8-yl]amino]benzamide] | 0.35 µM
CCNC(=O)c1ccc(Nc2nccn3c(-c4c[nH]nc4C(F)(F)F)cnc23)cc1CC [Example 280, N,2-diethyl-4-[[3-[3-(trifluoromethyl)-1H-pyrazol-4-yl]imidazo[1,2-a]pyrazin-8-yl]amino]benzamide] | 0.517 µM

Same assay, conditions: strain ATCC 17961, OD600 growth over 16 h, read-out: A. baumannii ATCC 17961 IC90

SMILES | IC90
N#CCn1cc(-c2cnc3c(Nc4ccc(C(=O)N5CCN(C(=O)N6CCC(N)CC6)CC5)c(Cl)c4)nccn23)c(C(F)(F)F)n1 [Example 178, 2-[4-[8-4-[4-(4-aminopiperidine-1-carbonyl)piperazine-1-carbonyl]-3-chloroanilino]imidazo[1,2-a]pyrazin-3-yl]-3-(trifluoromethyl) pyrazol-1-yl]acetonitrile formate] | 0.161 µM
NCCCC[C@H](N)C(=O)NCCCNC(=O)c1ccc(Nc2nccn3c(-c4c[nH]nc4C(F)(F)F)cnc23)cc1Cl [Example 345, 2-chloro-N-[3-[[(2S)-2,6-diaminohexanoyl]amino]propyl]-4-[[3-[3-(trifluoromethyl)-1H-pyrazol-4-yl]imidazo[1,2-a]pyrazin-8-yl]amino]benzamide foramate] | 1.22 µM
CCc1cc(Nc2nccn3c(-c4cn(CC5CC5)nc4C(F)(F)F)cnc23)ccc1C(=O)NCCOCCN [Example 30, N-[2-(2-aminoethoxy)ethyl]-4-[[3-[1-(cyclopropylmethyl)-3-(trifluoromethyl)pyrazol-4-yl]imidazo[1,2-a]pyrazin-8-yl]amino]-2-ethylbenzmamide formate] | 0.159 µM
